Patent US11091781B2, “Carbon fixation systems and methods” (priority 2015, dated 2021)

Legend:
R. eutropha [1] = test: Spot assay of R. eutropha in the presence of Co^2+; type: cell-based, Ralstonia eutropha; conditions: estimated by comparison at 1/100 dilution, FIG. 18, read-out: half maximal inhibitory concentration, IC50 (concentration of Co^2+ toxic to R. eutropha)
Experimental: (§1) The procedure for spot assays was performed by diluting 100 μL of culture grown under different conditions by 1:10 in fresh minimal medium, which was vortexed. Three to four serial 10-fold dilutions were made and 2 μL of each dilution was spotted on rich broth agar plates and allowed to dry. Plates were typically grown for 2 days at 30° C. before imaging. The half maximal inhibitory concentration (IC50) was estimated based on the comparison at 1/100 dilution. The areas of colonies at certain conditions were then compared with that of control samples.
FIG. 17 presents, cyclic voltammograms of Co^2+ in the phosphate buffer (pH=7), a pre-wave to the catalytic water-splitting current corresponds to the oxidation of Co^2+ to Co^3+, which drives deposition of the catalyst. […] As noted previously, the self-healing property of CoPi alloy is derived from this interplay of the potential at which OER occurs vs. the potential at which the catalyst deposits. In concert, the Co—P and CoPi catalysts maintain extremely low concentrations of Co^2+ in solution through activity derived from the self-healing process. Inductively coupled plasma mass spectrometry (ICP-MS) analysis of a Co-P|CoPi catalysts system (Eappl=2.2 V) confirm that sub-μM levels of Co^2+ are present in solution after 24 h. […]

[2] = molecular target: membrane-bound hydrogenases in R. eutropha (Cupriavidus necator, UniProt P31891); conditions: H2 as substrate; cited from earlier work
R. eutropha [3] = type: cell-based, Ralstonia eutropha; conditions: spot assay at different isopropanol concentrations, FIG. 25
Experimental: as §1
FIG. 25 is a photograph of cell cultures taken for different isopropanol concentration.

[4] = system: H16 and ROS-resistant BC4 strains of R. eutropha; test: Spot assay of ROS tolerance with paraquat as ROS-inducer; type: cell-based, Ralstonia eutropha; conditions: BC4 vs wild-type H16, FIG. 26
Experimental: as §1
A ROS-resistant variant of R. eutropha, evolved from a reactor including a stainless steel CoPi water-splitting electrode pair after 11 consecutive days of operation at an applied voltage potential of 2.3 V with a H2O2 generation rate of ˜0.6 μM/min. […] However, there was minimal difference noted in ηelec for the current reactor systems using the Co-P|CoPi electrode pairs, confirming minimal concentrations of ROS in the reactors. Of course, it should be understood that BC4 may be used in any reactor system, and may also be beneficial for use in helping systems achieve a high ηelec where ROS are present in larger concentrations.

Sequence of membrane-bound hydrogenases in R. eutropha (P31891 1-603 limits assumed): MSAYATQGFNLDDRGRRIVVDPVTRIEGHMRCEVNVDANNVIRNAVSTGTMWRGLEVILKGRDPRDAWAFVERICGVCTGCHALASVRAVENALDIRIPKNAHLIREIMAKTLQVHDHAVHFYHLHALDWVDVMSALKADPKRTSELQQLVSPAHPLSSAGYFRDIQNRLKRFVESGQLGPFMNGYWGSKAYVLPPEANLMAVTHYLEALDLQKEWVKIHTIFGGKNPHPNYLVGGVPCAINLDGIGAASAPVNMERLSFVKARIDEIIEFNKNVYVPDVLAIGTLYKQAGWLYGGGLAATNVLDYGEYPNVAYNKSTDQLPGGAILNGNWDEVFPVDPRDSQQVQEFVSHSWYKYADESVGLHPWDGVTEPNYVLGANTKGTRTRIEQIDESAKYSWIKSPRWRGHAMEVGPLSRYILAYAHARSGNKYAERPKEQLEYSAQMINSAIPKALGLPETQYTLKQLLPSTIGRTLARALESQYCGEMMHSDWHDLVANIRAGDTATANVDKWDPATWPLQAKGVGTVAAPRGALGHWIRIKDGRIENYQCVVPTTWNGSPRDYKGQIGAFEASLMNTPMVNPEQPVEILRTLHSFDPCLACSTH
Sequence of membrane-bound hydrogenases in R. eutropha (P31892 44-360 partner): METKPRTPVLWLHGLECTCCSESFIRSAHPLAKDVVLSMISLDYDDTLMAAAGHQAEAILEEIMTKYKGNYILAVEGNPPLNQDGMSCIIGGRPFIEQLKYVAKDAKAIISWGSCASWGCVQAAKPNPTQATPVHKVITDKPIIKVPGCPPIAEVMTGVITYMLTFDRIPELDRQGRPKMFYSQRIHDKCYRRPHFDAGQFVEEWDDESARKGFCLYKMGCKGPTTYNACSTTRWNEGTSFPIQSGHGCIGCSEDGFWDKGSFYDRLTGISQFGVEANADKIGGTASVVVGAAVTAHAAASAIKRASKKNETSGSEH

[Co+2] [Co^2+]
IC50 (R. eutropha [1]): ~25 µM

[HH] [H2, hydrogen]
Michaelis constant [2]: about 6 μM

CC(C)O [isopropanol]
tolerance of R. eutropha towards isopropanol (R. eutropha [3]): demonstrates tolerance

C[n+]1ccc(-c2cc[n+](C)cc2)cc1 [paraquat]
IC50 of paraquat for BC4 compared with wild type [4]: almost one order of magnitude higher than that of wild type
